From US6841661B2, “Glycopeptide antibacterial compounds, compositions containing same and methods of using same” (Princeton Univerisity, priority 1999, dated 2005)

How the values were obtained:
[1] = system: E. faecium CL 5242 (VanA); assay: microbe, parasite or virus in culture; assay type: cell-based; design: CL5242 (in vitro testing): unit not given here; conditions: Tables 7 and 8; unit not given
In short: (§1)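 NCCLS M7-A4-based broth microdilution with twofold serial dilutions, incubated at 35° C; medium BHI for enterococci and VISA/MRSA, cation-adjusted Mueller-Hinton for E. coli. Inoculum about 1-5×10^6 CFU/ml (enterococci) or 3-7×10^5 CFU/ml (others); MIC is lowest concentration with no visible growth, read at 18-20 hr for E. coli, 22-24 hr otherwise.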

[2] = system: E. faecium CL 4931 (VanA); assay: microbe, parasite or virus in culture; assay type: cell-based; design: CL4931 (in vitro testing): unit not given here; conditions: Tables 7 and 8; unit not given
In short: as §1

[3] = system: CL 4931, CL 5053, CL 5242 and CL 4877; assay type: cell-based, E. faecium, E. faecalis; design: unit not given here; conditions: mean of CL4931, CL5053, CL5242, CL4877; unit not given
In short: (§2)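 Twofold broth microdilution per modified NCCLS M7-A4, 35 °C. Enterococci and VISA/MRSA in BHI (VISA/MRSA precultured in TSB + 10% HS), E. coli in MH II. Inocula ~1-5×10^6 CFU/ml for enterococci, ~3-7×10^5 CFU/ml otherwise. MIC is the lowest concentration with no visible growth, read at 18-20 hr (E. coli) or 22-24 hr.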

[4] = system: E. faecalis CL 4877 (VanB); assay: microbe, parasite or virus in culture; assay type: cell-based; design: CL4877 (in vitro testing): unit not given here; conditions: Tables 7 and 8; unit not given
In short: as §2

[5] = system: E. faecium CL 5053 (VanA); assay: microbe, parasite or virus in culture; assay type: cell-based; design: CL5053 (in vitro testing): unit not given here; conditions: Tables 7 and 8; unit not given
In short: as §1

Row | SMILES | CL5242 (in vitro testing) [1] | CL4931 (in vitro testing) [2] | Mean [3] | CL4877 (in vitro testing) [4] | CL5053 (in vitro testing) [5]
1 | CNC(CC(C)C)C(=O)NC1C(=O)NC(CC(N)=O)C(=O)NC2C(=O)NC3C(=O)NC(C(=O)NC(C(=O)O)c4cc(O)cc(O)c4-c4cc3ccc4O)C(O)c3ccc(c(Cl)c3)Oc3cc2cc(c3OC2OC(CN3CCC(N(C)C)CC3)C(O)C(O)C2OC2CC(C)(NCc3ccc(OCc4ccc(Cl)c(Cl)c4)cc3)C(O)C(C)O2)Oc2ccc(cc2Cl)C1O (stereo not drawn) [Compound 170] | 8 | 16 | 22.0 | 32 | 32
2 | CNC(CC(C)C)C(=O)NC1C(=O)NC(CC(N)=O)C(=O)NC2C(=O)NC3C(=O)NC(C(=O)NC(C(=O)O)c4cc(O)cc(O)c4-c4cc3ccc4O)C(O)c3ccc(c(Cl)c3)Oc3cc2cc(c3OC2OC(CN)C(O)C(O)C2OC2CC(C)(NCc3ccc(OCc4ccc(Cl)cc4)cc3)C(O)C(C)O2)Oc2ccc(cc2Cl)C1O (stereo not drawn) [Compound 171] | 1 | 4 | 7.25 | 16 | 8
3 | CNC(CC(C)C)C(=O)NC1C(=O)NC(CC(N)=O)C(=O)NC2C(=O)NC3C(=O)NC(C(=O)NC(C(=O)O)c4cc(O)cc(O)c4-c4cc3ccc4O)C(O)c3ccc(c(Cl)c3)Oc3cc2cc(c3OC2OC(CN)C(O)C(O)C2OC2CC(C)(NCc3ccc(OCc4cccc(Cl)c4)cc3)C(O)C(C)O2)Oc2ccc(cc2Cl)C1O (stereo not drawn) [Compound 172] | 2 | 16 | 12.5 | >16 | 16
4 | CNC(CC(C)C)C(=O)NC1C(=O)NC(CC(N)=O)C(=O)NC2C(=O)NC3C(=O)NC(C(=O)NC(C(=O)O)c4cc(O)cc(O)c4-c4cc3ccc4O)C(O)c3ccc(c(Cl)c3)Oc3cc2cc(c3OC2OC(CN)C(O)C(O)C2OC2CC(C)(NCc3ccc(OCc4ccc(Cl)cc4Cl)cc3)C(O)C(C)O2)Oc2ccc(cc2Cl)C1O (stereo not drawn) [Compound 173] | 1 | 8 | 4.75 | 2 | 8
5 | CNC(CC(C)C)C(=O)NC1C(=O)NC(CC(N)=O)C(=O)NC2C(=O)NC3C(=O)NC(C(=O)NC(C(=O)O)c4cc(O)cc(O)c4-c4cc3ccc4O)C(O)c3ccc(c(Cl)c3)Oc3cc2cc(c3OC2OC(CN)C(O)C(O)C2OC2CC(C)(NCc3ccc(OCc4cc(Cl)ccc4Cl)cc3)C(O)C(C)O2)Oc2ccc(cc2Cl)C1O (stereo not drawn) [Compound 174] | 8 | 16 | 14 | 16 | 16
6 | CNC(CC(C)C)C(=O)NC1C(=O)NC(CC(N)=O)C(=O)NC2C(=O)NC3C(=O)NC(C(=O)NC(C(=O)O)c4cc(O)cc(O)c4-c4cc3ccc4O)C(O)c3ccc(c(Cl)c3)Oc3cc2cc(c3OC2OC(CN)C(O)C(O)C2OC2CC(C)(NCc3ccc(OCc4cc(Cl)cc(Cl)c4)cc3)C(O)C(C)O2)Oc2ccc(cc2Cl)C1O (stereo not drawn) [Compound 175] | 2 | 4 | 3 | 2 | 4
7 | CNC(CC(C)C)C(=O)NC1C(=O)NC(CC(N)=O)C(=O)NC2C(=O)NC3C(=O)NC(C(=O)NC(C(=O)O)c4cc(O)cc(O)c4-c4cc3ccc4O)C(O)c3ccc(c(Cl)c3)Oc3cc2cc(c3OC2OC(CN)C(O)C(O)C2OC2CC(C)(NCc3ccc(OCc4c(Cl)cccc4Cl)cc3)C(O)C(C)O2)Oc2ccc(cc2Cl)C1O (stereo not drawn) [Compound 176] | 4 | 16 | 13 | >16 | 16
8 | CNC(CC(C)C)C(=O)NC1C(=O)NC(CC(N)=O)C(=O)NC2C(=O)NC3C(=O)NC(C(=O)NC(C(=O)O)c4cc(O)cc(O)c4-c4cc3ccc4O)C(O)c3ccc(c(Cl)c3)Oc3cc2cc(c3OC2OC(CN)C(O)C(O)C2OC2CC(C)(NCc3ccc(OCc4ccc(C(=O)OC)cc4)cc3)C(O)C(C)O2)Oc2ccc(cc2Cl)C1O (stereo not drawn) [Compound 177] | 4 | >16 | 13 | >16 | >16
9 | CNC(CC(C)C)C(=O)NC1C(=O)NC(CC(N)=O)C(=O)NC2C(=O)NC3C(=O)NC(C(=O)NC(C(=O)O)c4cc(O)cc(O)c4-c4cc3ccc4O)C(O)c3ccc(c(Cl)c3)Oc3cc2cc(c3OC2OC(CN)C(O)C(O)C2OC2CC(C)(NCc3ccc(OCc4ccc([N+](=O)[O-])cc4)cc3)C(O)C(C)O2)Oc2ccc(cc2Cl)C1O (stereo not drawn) [Compound 178] | 8 | 32 | 27 | >32 | >32
10 | CNC(CC(C)C)C(=O)NC1C(=O)NC(CC(N)=O)C(=O)NC2C(=O)NC3C(=O)NC(C(=O)NC(C(=O)O)c4cc(O)cc(O)c4-c4cc3ccc4O)C(O)c3ccc(c(Cl)c3)Oc3cc2cc(c3OC2OC(CN)C(O)C(O)C2OC2CC(C)(NCc3ccc(OCc4ccc(C(F)(F)F)cc4)cc3)C(O)C(C)O2)Oc2ccc(cc2Cl)C1O (stereo not drawn) [Compound 179] | 1 | 8 | 3.25 | 4 | 8
11 | CNC(CC(C)C)C(=O)NC1C(=O)NC(CC(N)=O)C(=O)NC2C(=O)NC3C(=O)NC(C(=O)NC(C(=O)O)c4cc(O)cc(O)c4-c4cc3ccc4O)C(O)c3ccc(c(Cl)c3)Oc3cc2cc(c3OC2OC(CN)C(O)C(O)C2OC2CC(C)(NCc3ccc(OCc4ccccc4C(F)(F)F)cc3)C(O)C(C)O2)Oc2ccc(cc2Cl)C1O (stereo not drawn) [Compound 180] | 2 | 16 | 12.5 | 16 | 16
12 | CNC(CC(C)C)C(=O)NC1C(=O)NC(CC(N)=O)C(=O)NC2C(=O)NC3C(=O)NC(C(=O)NC(C(=O)O)c4cc(O)cc(O)c4-c4cc3ccc4O)C(O)c3ccc(c(Cl)c3)Oc3cc2cc(c3OC2OC(CN)C(O)C(O)C2OC2CC(C)(NCc3ccc(OCc4ccc(F)cc4Cl)cc3)C(O)C(C)O2)Oc2ccc(cc2Cl)C1O (stereo not drawn) [Compound 181] | 4 | 16 | 21 | 32 | 32
13 | CNC(CC(C)C)C(=O)NC1C(=O)NC(CC(N)=O)C(=O)NC2C(=O)NC3C(=O)NC(C(=O)NC(C(=O)O)c4cc(O)cc(O)c4-c4cc3ccc4O)C(O)c3ccc(c(Cl)c3)Oc3cc2cc(c3OC2OC(CN)C(O)C(O)C2OC2CC(C)(NCc3ccc(OCc4ccccc4Cl)cc3)C(O)C(C)O2)Oc2ccc(cc2Cl)C1O (stereo not drawn) [Compound 182] | 4 | >16 | 13 | >16 | >16
14 | CNC(CC(C)C)C(=O)NC1C(=O)NC(CC(N)=O)C(=O)NC2C(=O)NC3C(=O)NC(C(=O)NC(C(=O)O)c4cc(O)cc(O)c4-c4cc3ccc4O)C(O)c3ccc(c(Cl)c3)Oc3cc2cc(c3OC2OC(CN)C(O)C(O)C2OC2CC(C)(NCc3ccc(OCc4ccc(Cl)c(Cl)c4)cc3Cl)C(O)C(C)O2)Oc2ccc(cc2Cl)C1O (stereo not drawn) [Compound 183] | 2 | 8 | 4 | 2 | 4
15 | CNC(CC(C)C)C(=O)NC1C(=O)NC(CC(N)=O)C(=O)NC2C(=O)NC3C(=O)NC(C(=O)NC(C(=O)O)c4cc(O)cc(O)c4-c4cc3ccc4O)C(O)c3ccc(c(Cl)c3)Oc3cc2cc(c3OC2OC(CN)C(O)C(O)C2OC2CC(C)(NCc3ccc(OCc4ccc(Cl)c(Cl)c4)c(OC)c3)C(O)C(C)O2)Oc2ccc(cc2Cl)C1O (stereo not drawn) [Compound 184] | 2 | 4 | 4.5 | 8 | 4
16 | CNC(CC(C)C)C(=O)NC1C(=O)NC(CC(N)=O)C(=O)NC2C(=O)NC3C(=O)NC(C(=O)NC(C(=O)O)c4cc(O)cc(O)c4-c4cc3ccc4O)C(O)c3ccc(c(Cl)c3)Oc3cc2cc(c3OC2OC(CN)C(O)C(O)C2OC2CC(C)(NCc3ccc(OCc4ccc(Cl)c(Cl)c4)cc3OC)C(O)C(C)O2)Oc2ccc(cc2Cl)C1O (stereo not drawn) [Compound 185] | 4 | 8 | 8 | 4 | 16
17 | CNC(CC(C)C)C(=O)NC1C(=O)NC(CC(N)=O)C(=O)NC2C(=O)NC3C(=O)NC(C(=O)NC(C(=O)O)c4cc(O)cc(O)c4-c4cc3ccc4O)C(O)c3ccc(c(Cl)c3)Oc3cc2cc(c3OC2OC(CN)C(O)C(O)C2OC2CC(C)(NCc3ccc(Oc4ccc(Cl)c(Cl)c4)cc3)C(O)C(C)O2)Oc2ccc(cc2Cl)C1O (stereo not drawn) [Compound 186] | 2 | 8 | 6.5 | 8 | 8
18 | CNC(CC(C)C)C(=O)NC1C(=O)NC(CC(N)=O)C(=O)NC2C(=O)NC3C(=O)NC(C(=O)NC(C(=O)O)c4cc(O)cc(O)c4-c4cc3ccc4O)C(O)c3ccc(c(Cl)c3)Oc3cc2cc(c3OC2OC(CN)C(O)C(O)C2OC2CC(C)(NCc3ccc(C(=O)Oc4ccc(Cl)cc4)cc3)C(O)C(C)O2)Oc2ccc(cc2Cl)C1O (stereo not drawn) [Compound 187] | 4 | 16 | 17 | 32 | 16
